Data taken from patent US11130766B2, “Deuterated thienopiperidine derivatives, manufacturing method, and application thereof” (JIANGSU TASLY DIYI PHARMACEUTICAL CO., LTD., priority 2015, dated 2021).
Where two headings read alike, the source gives them in different places. Marks after values point to notes of the source that are not given here. Values belong to the compound of their own block, whether it stands above or below them.

Columns and labels:
Rat Tail Bleeding Model = test system: Rat Tail Bleeding Model
Method: genus, strain SD rat, • Provider: Slac • Weight: 250-350 g • Sex: male • Animal number: 30
Experimental Method: • The animals were allowed adapt to the environment after arrival for 1 week and fasted for 16 hours prior to the experiment. • The tail bleeding time started to be recorded 2 h after oral administration of the test compounds and 4 h after oral administration of clopidogrel. • The rats were anesthetized with pentobarbital sodium (50 mg/kg, ip) 10 min prior to the recording of the tail bleeding time, after the rat was completely anesthetized and reaching the detection time, the tail was cut at 1.3 mm from the rat tail-tip with a scissor and perpendicularly immerged into a saline at 37° C. Timing recording was not started until the blood flow appeared. • The timing recording was stopped when the bleeding time interval was longer than 20 seconds. The maximum observation time for the blood flow was set for 40 minutes. If it was longer than 40 minutes, the timing recording was stopped and the time was recorded as 40 minutes.

[1] = test system: ADP induced platelet aggregation; experiment: ADP induced platelet aggregation, maximum aggregation rate after administration to rats; assay type: in vivo, Wistar male rats; design: unit not given here; settings: 3 mg/kg
Method: Addition of small dose of ADP (concentration less than 0.9 μmol/L) into the platelet suspension could lead to rapid platelet aggregation, followed by quick disaggregation; if moderate dose of ADP (about 1.0 μmol/L) was added, then the second irreversible aggregation phase appeared not long after the end of the first aggregation phase and the disaggregation. The maximum aggregation rate of the irreversible aggregation phase was used to evaluate the effect of the test samples on the function of blood coagulation.
Animals: Wistar male rats, weighing 230-250 g, were purchased from Vital River Laboratory Animal Technology Co., Ltd.
Reagent: ADP, Sigma Corporation.
Test samples: 16 test samples were provided by the Tasly Group; referred to China patent application 201310428052.4 for manufacturing method of TSC-1˜4 and TSC-6˜9.
Dose of administration: the test samples were suspended with 0.25% CMC, administered 3 mg/kg weight, volume of administration: 2 mL.
2 Hours after administration, the rats were anesthetized with pentobarbital sodium, and blood was drawn from the abdominal aorta, anticoagulated with sodium citrate with a ratio of 1:9, and centrifuged to obtain the platelet-rich plasma and platelet-poor plasma, with the mixed ratio of the platelet-poor plasma to platelet-rich plasma=3:1.

[2] = test system: Rat Arteriovenous Thrombus Loop Model
Excerpt: genus, strain: SD rat, • Provider: Slac • Weight: 250-350 g • Sex: male • Animal number: 30
Apparatus and Materials • Swab, dry tampon, alcohol pad, anerdian tampon. • Surgical scissor, ophthalmic forceps, hemostatic forceps, microsurgical scissor, microsurgical forceps, artery clamps. • 3-0 surgical suture, thick PE tube (I.D.*O.D.=1.14 mm*1.63 mm, 8 cm long), think PE tube (I.D.*O.D.=0.72 mm*1.22 mm, 6 cm long). • Surgical board, binding rope, timer, precise electronic balance, weighing paper. • Syringe, normal saline.
7. Experimental Method • After arrival, the animals were let adapt to the environment for 1 week and fasted for 16 hours prior to the test. • The arteriovenous blood loop circulation was started 2 h after oral administration of the test compounds and 4 h after oral administration of clopidogrel. • The rats were anesthetized with pentobarbital sodium (50 mg/kg, ip) 15 min before the arteriovenous blood loop circulation was started. • The left external jugular vein and the right carotid artery were separated and inserted with thin PE tubes respectively. • Two PE tubes were connected with another thick PE tube with a length of 8 cm to form a circulation passage. There's a 6 cm surgical suture (3-0) in the thick PE tube. • 15 min after the circulation passage was opened, the blood flow was blocked, the filament was taken out and weighed after the blood was sucked out. The thrombus weight was obtained after subtraction of the weight of the filament itself.

esterase [3] = settings: for sample test results (concentration) Mean / sample test results (concentration) Num. 1 / sample test results (concentration) Num. 2 / sample test results (concentration) Num. 3: rat whole blood, 37° C., 30 μg/mL
Method: The hydrolysis rates of formula TSD-6 and clopidogrel bisulfate in the rat whole blood were determined by employing the in vitro incubation method.
3 mL of the rat fresh whole blood was taken and placed in a glass test tube. 30 μg/mL of formula TSD-6 and clopidogrel bisulfate (prepared with saline) were added, with 3 parallel tests for each group. The test tubes were shocked at a constant temperature of 37° C., 100 μL of the mixture was taken out at fixed time points of 10 min, 20 min, 30 min, 40 min, 50 min, 60 min, 70 min, 80 min, 90 min, 100 min, 110 min, and 120 min, into which 900 μL of methanol was added to stop the reaction immediately, then 100 μL methanol/water (1:1, v/v) and 100 μL internal standard (diazepam, 100 ng/mL) were added sequentially. The mixture was centrifuged at 13000 rpm at low temperature for 10 min, the supernatant was transferred into another EP tube, and 20 μL of the supernatant was taken for sample injection.

esterase [4] = experiment: Esterase hydrolysis rates of TSD-8 and clopidogrel bisulfate, in vitro incubation in rat whole blood; assay type: in vitro ADME; design: sample test results (concentration) Num. 1 / sample test results (concentration) Num. 2 / sample test results (concentration) Num. 3 / sample test results (concentration) Mean: unit not given here; settings: for sample test results (concentration) Mean / sample test results (concentration) Num. 1 / sample test results (concentration) Num. 2 / sample test results (concentration) Num. 3: rat whole blood, 37° C., 30 μg/mL
[5] = SD rat, 1.0 mg/kg oral gavage, 2 h after administration
[6] = SD rat, 1.0 mg/kg oral gavage, 2 h after administration, 15 min circulation
[7] = ADP induced, rats, blood drawn 2 hours after administration

Structure (SMILES): [2H]C([2H])([2H])OC(=O)[C@H](c1ccccc1Cl)N1CCc2sc(OP(=O)(O)O)cc2C1 [TSD-6]
Tail Bleeding Time (s) (Rat Tail Bleeding Model; [5]): 1331* s
anticoagulant effect (tail bleeding time) (Rat Tail Bleeding Model; rat tail bleeding model, 1 mg/kg oral): much better than that of the non-deuterated compound TSC-6 and analog I-1
Maximum Platelet Aggregation Rate ([1]; rat, in vivo): 17.4 ± 5.13
Thrombus (mg) [2, 6]: 18.4* mg
weight of the thrombus formed ([2]; rat arteriovenous thrombus loop model, 1 mg/kg oral): much lower than that of the non-deuterated compound TSC-6 and analog I-1
hydrolysis rate in the rat whole blood (esterase [3]; compared with clopidogrel, FIG. 2): significantly slower than that of clopidogrel
sample test results (concentration) Mean (esterase [3]; 10 min): 389.7
sample test results (concentration) Num. 1 (esterase [3]; 10 min): 486
sample test results (concentration) Num. 2 (esterase [3]; 10 min): 287
sample test results (concentration) Num. 3 (esterase [3]; 10 min): 396
sample test results (concentration) Mean (esterase [3]; 20 min): 315.3
sample test results (concentration) Num. 1 (esterase [3]; 20 min): 306
sample test results (concentration) Num. 2 (esterase [3]; 20 min): 345
sample test results (concentration) Num. 3 (esterase [3]; 20 min): 295
sample test results (concentration) Mean (esterase [3]; 30 min): 244.3
sample test results (concentration) Num. 1 (esterase [3]; 30 min): 246
sample test results (concentration) Num. 2 (esterase [3]; 30 min): 223
sample test results (concentration) Num. 3 (esterase [3]; 30 min): 264
sample test results (concentration) Mean (esterase [3]; 40 min): 217.7
sample test results (concentration) Num. 1 (esterase [3]; 40 min): 232
sample test results (concentration) Num. 2 (esterase [3]; 40 min): 213
sample test results (concentration) Num. 3 (esterase [3]; 40 min): 208
sample test results (concentration) Mean (esterase [3]; 50 min): 172.0
sample test results (concentration) Num. 1 (esterase [3]; 50 min): 196
sample test results (concentration) Num. 2 (esterase [3]; 50 min): 153
sample test results (concentration) Num. 3 (esterase [3]; 50 min): 167
sample test results (concentration) Mean (esterase [3]; 60 min): 132.3
sample test results (concentration) Num. 1 (esterase [3]; 60 min): 115
sample test results (concentration) Num. 2 (esterase [3]; 60 min): 134
sample test results (concentration) Num. 3 (esterase [3]; 60 min): 148
sample test results (concentration) Mean (esterase [3]; 90 min): 97.50
sample test results (concentration) Num. 1 (esterase [3]; 90 min): 85.3
sample test results (concentration) Num. 2 (esterase [3]; 90 min): 112
sample test results (concentration) Num. 3 (esterase [3]; 90 min): 95.2
sample test results (concentration) Mean (esterase [3]; 100 min): 72.57
sample test results (concentration) Num. 1 (esterase [3]; 100 min): 84.7
sample test results (concentration) Num. 2 (esterase [3]; 100 min): 71.8
sample test results (concentration) Num. 3 (esterase [3]; 100 min): 61.2
sample test results (concentration) Mean (esterase [3]; 110 min): 54.63
sample test results (concentration) Num. 1 (esterase [3]; 110 min): 48.1
sample test results (concentration) Num. 2 (esterase [3]; 110 min): 59.1
sample test results (concentration) Num. 3 (esterase [3]; 110 min): 56.7
sample test results (concentration) Mean (esterase [3]; 120 min): 25.83
sample test results (concentration) Num. 1 (esterase [3]; 120 min): 24.5
sample test results (concentration) Num. 2 (esterase [3]; 120 min): 28.4
sample test results (concentration) Num. 3 (esterase [3]; 120 min): 24.6

Structure (SMILES): [2H]C([2H])([2H])OC(=O)[C@H](c1ccccc1Cl)N1CCc2sc(OP(=O)(OC(C)C)OC(C)C)cc2C1 [TSD-3]
Maximum Platelet Aggregation Rate [1, 7]: 28.4 ± 3.27

Structure (SMILES): [2H]C([2H])([2H])OC(=O)[C@H](c1ccccc1Cl)N1CCc2sc(OP(=O)(Oc3ccccc3)Oc3ccccc3)cc2C1 [TSD-4]
Maximum Platelet Aggregation Rate [1, 7]: 36.2 ± 4.16

Structure (SMILES): [2H]C([2H])([2H])OC(=O)[C@H](c1ccccc1Cl)N1CCc2sc(OC(C)=O)cc2C1 [I-1]
Tail Bleeding Time (Rat Tail Bleeding Model; [5]): 950 s
Thrombus [2, 6]: 25.6 mg

Structure (SMILES): COC(=O)[C@H](c1ccccc1Cl)N1CCc2sc(OP(=O)(O)O)cc2C1 [TSC-6]
Tail Bleeding Time (Rat Tail Bleeding Model; [5]): 635 s
Maximum Platelet Aggregation Rate ([1]; rat, in vivo): 29.6 ± 5.33
Thrombus (mg) [2, 6]: 31.4* mg

Structure (SMILES): [2H]C([2H])([2H])OC(=O)[C@H](c1ccccc1Cl)N1CCc2sc(OP(=O)(OC)OC)cc2C1 [TSD-1]
Maximum Platelet Aggregation Rate [1, 7]: 35.6 ± 3.35

Structure (SMILES): CC(=O)Oc1cc2c(s1)CCN(C(C(=O)C1CC1)c1ccccc1F)C2 (centres unmarked) [prasugrel, reference compound]
Maximum Platelet Aggregation Rate [1, 7]: 20.72 ± 8.84

Structure (SMILES): [2H]C([2H])([2H])OC(=O)[C@H](c1ccccc1Cl)N1CCc2sc(OP(=O)(OCC)OCC)cc2C1 [TSD-2]
Maximum Platelet Aggregation Rate [1, 7]: 32.7 ± 5.33

hydrolysis rate in the rat whole blood (esterase [4]; compared with clopidogrel, FIG. 1): slower than that of clopidogrel
sample test results (concentration) Mean (esterase [4]; 10 min): 391.50
sample test results (concentration) Num. 1 (esterase [4]; 10 min): 531
sample test results (concentration) Num. 2 (esterase [4]; 10 min): 252
sample test results (concentration) Mean (esterase [4]; 20 min): 290.00
sample test results (concentration) Num. 1 (esterase [4]; 20 min): 336
sample test results (concentration) Num. 2 (esterase [4]; 20 min): 242
sample test results (concentration) Num. 3 (esterase [4]; 20 min): 292
sample test results (concentration) Mean (esterase [4]; 30 min): 275.33
sample test results (concentration) Num. 1 (esterase [4]; 30 min): 255
sample test results (concentration) Num. 2 (esterase [4]; 30 min): 291
sample test results (concentration) Num. 3 (esterase [4]; 30 min): 280
sample test results (concentration) Mean (esterase [4]; 40 min): 223.00
sample test results (concentration) Num. 1 (esterase [4]; 40 min): 222
sample test results (concentration) Num. 2 (esterase [4]; 40 min): 219
sample test results (concentration) Num. 3 (esterase [4]; 40 min): 228
sample test results (concentration) Mean (esterase [4]; 50 min): 101.67
sample test results (concentration) Num. 1 (esterase [4]; 50 min): 112
sample test results (concentration) Num. 2 (esterase [4]; 50 min): 103
sample test results (concentration) Num. 3 (esterase [4]; 50 min): 90
sample test results (concentration) Mean (esterase [4]; 60 min): 112.00
sample test results (concentration) Num. 1 (esterase [4]; 60 min): 115
sample test results (concentration) Num. 2 (esterase [4]; 60 min): 123
sample test results (concentration) Num. 3 (esterase [4]; 60 min): 98
sample test results (concentration) Mean (esterase [4]; 90 min): 74.63
sample test results (concentration) Num. 1 (esterase [4]; 90 min): 76.3
sample test results (concentration) Num. 2 (esterase [4]; 90 min): 77.4
sample test results (concentration) Num. 3 (esterase [4]; 90 min): 70.2
sample test results (concentration) Mean (esterase [4]; 100 min): 55.40
sample test results (concentration) Num. 1 (esterase [4]; 100 min): 52.7
sample test results (concentration) Num. 2 (esterase [4]; 100 min): 63.2
sample test results (concentration) Num. 3 (esterase [4]; 100 min): 50.3
sample test results (concentration) Mean (esterase [4]; 110 min): 47.90
sample test results (concentration) Num. 1 (esterase [4]; 110 min): 45.7
sample test results (concentration) Num. 2 (esterase [4]; 110 min): 51.5
sample test results (concentration) Num. 3 (esterase [4]; 110 min): 46.5
sample test results (concentration) Mean (esterase [4]; 120 min): 34.90
sample test results (concentration) Num. 1 (esterase [4]; 120 min): 34.3
sample test results (concentration) Num. 2 (esterase [4]; 120 min): 38.7
sample test results (concentration) Num. 3 (esterase [4]; 120 min): 31.7
Structure (SMILES): [2H]C([2H])([2H])OC(=O)[C@H](c1ccccc1Cl)N1CCc2sc(OCOP(=O)(O)O)cc2C1 [TSD-8]
Maximum Platelet Aggregation Rate [1, 7]: 16.3 ± 4.16

Structure (SMILES): [2H]C([2H])([2H])OC(=O)[C@H](c1ccccc1Cl)N1CCc2sc(OCOP(=O)(OC(C)(C)C)OC(C)(C)C)cc2C1 [TSD-7]
Maximum Platelet Aggregation Rate [1, 7]: 27.1 ± 6.21
